Patent US20240254118A1, “PRMT5 INHIBITORS AND USES THEREOF” (Gilead Sciences, Inc., priority 2022, published 2024)

What was measured:
[1] = system: SDMA signal (PRMT5 inhibition) in HCT116 MTAP-deleted cells; assay: Symmetric di-methyl arginine image-based high content screen assay (SDMA assay), HCT116 MTAP-deleted; type: cell-based; conditions: SDMA assay; for EC50: Homo sapiens, HCT-116, 72 h, 3 days of treatment, cell line not given, taken as HCT116 MTAP-deleted, read-out: EC50 (SDMA assay); for EC50 selectivity (SDMA assay): taken as HCT116 WT versus MTAP-deleted
Outline: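 HCT116 MTAP-deleted cells treated with compound until Day 3, then formalin-fixed, permeabilized and immunostained for SDMA, with DAPI nuclear counterstain. Imaged by high-content microscopy; SDMA read-out is mean Alexa 488 intensity per DAPI-defined cell, reflecting PRMT5 inhibition.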

[2] = system: HCT116 MTAP-deleted cells; assay: Cell viability assay (CellTiter-Glo, 7 days), HCT116 MTAP-deleted; conditions: Homo sapiens, HCT-116, 168 h

Row | EC50 [1] | EC50 selectivity (SDMA assay) [1] | SMILES | CC50 [2]
1 | 1 to 5 nM | 58 | CN(C(=O)C1CC1)N(Cc1cc(F)c(-c2cnn(C(F)(F)F)c2)cc1F)C(=O)c1ccc2nc(N)c3cnn(C)c3c2c1 [Example 311, 4-amino-N′-(cyclopropanecarbonyl)-N-(2,5-difluoro-4-(1-(trifluoromethyl)-1H-pyrazol-4-yl)benzyl)-N′,1-dimethyl-1H-pyrazolo[4,3-c]quinoline-8-carbohydrazide] | < 100 nM
2 | < 1 nM | 160 | Cc1cc(CN(C(=O)c2ccc3nc(N)c4cnn(C)c4c3c2)N(C)C(=O)C2CC2)c(F)cc1-c1cnn(C(F)(F)F)c1 [Example 315, 4-amino-N′-(cyclopropanecarbonyl)-N-(2-fluoro-5-methyl-4-(1-(trifluoromethyl)-1H-pyrazol-4-yl)benzyl)-N′,1-dimethyl-1H-pyrazolo[4,3-c]quinoline-8-carbohydrazide] | < 100 nM
3 | < 1 nM | 130 | Cc1cc(CN(C(=O)c2ccc3nc(N)c4cnn(C)c4c3c2)N(C)C(=O)C2CC2)c(F)cc1-c1cnn(C(F)F)c1 [Example 318, 4-amino-N′-(cyclopropanecarbonyl)-N-(4-(1-(difluoromethyl)-1H-pyrazol-4-yl)-2-fluoro-5-methylbenzyl)-N′,1-dimethyl-1H-pyrazolo[4,3-c]quinoline-8-carbohydrazide] | < 100 nM
4 | < 1 nM | 85 | CC(=O)N(C)N(Cc1ccc2nc(C)sc2c1)C(=O)c1ccc2nc(N)c3cnn(C)c3c2c1 [Example 321, N′-acetyl-4-amino-N′,1-dimethyl-N-((2-methylbenzo[d]thiazol-6-yl)methyl)-1H-pyrazolo[4,3-c]quinoline-8-carbohydrazide] | < 100 nM
5 | < 1 nM | 34 | Cn1ncc2c(N)nc3ccc(C(=O)N(Cc4ccc(C(F)(F)F)cc4F)n4cnc5ccccc54)cc3c21 [Example 322, 4-amino-N-(1H-benzo[d]imidazol-1-yl)-N-(2-fluoro-4-(trifluoromethyl)benzyl)-1-methyl-1H-pyrazolo[4,3-c]quinoline-8-carboxamide] | < 100 nM
6 | 1 to 5 nM | 44 | CN(C(=O)C1CC1)N(Cc1ccc2nc(C(F)(F)F)sc2c1)C(=O)c1ccc2nc(N)c3cnn(C)c3c2c1 [Example 323, 4-amino-N′-(cyclopropanecarbonyl)-N′,1-dimethyl-N-((2-(trifluoromethyl)benzo[d]thiazol-6-yl)methyl)-1H-pyrazolo[4,3-c]quinoline-8-carbohydrazide] | < 100 nM
7 | < 1 nM | 111 | CN(C(=O)C1CC1)N(Cc1ccc(C(F)F)cc1F)C(=O)c1ccc2nc(N)c3cnn(C)c3c2c1 [Example 324, 4-amino-N′-(cyclopropanecarbonyl)-N-(4-(difluoromethyl)-2-fluorobenzyl)-N′,1-dimethyl-1H-pyrazolo[4,3-c]quinoline-8-carbohydrazide] | < 100 nM
8 | < 1 nM | 103 | [2H]C([2H])([2H])N(C(=O)C1CC1)N(Cc1ccc(C(F)(F)F)cn1)C(=O)c1ccc2nc(N)c3cnn(C)c3c2c1 [Example 325, 4-amino-N′-(cyclopropanecarbonyl)-1-methyl-N′-(methyl-d3)-N-((5-(trifluoromethyl)pyridin-2-yl)methyl)-1H-pyrazolo[4,3-c]quinoline-8-carbohydrazide] | < 100 nM
9 | < 1 nM | 114 | [2H]C([2H])([2H])N(C(=O)C1CC1)N(Cc1ccc(C(F)(F)F)cn1)C(=O)c1ccc2nc(N)c3cnn(C([2H])([2H])[2H])c3c2c1 [Example 326, 4-amino-N′-(cyclopropanecarbonyl)-N′,1-bis(methyl-d3)-N-((5-(trifluoromethyl)pyridin-2-yl)methyl)-1H-pyrazolo[4,3-c]quinoline-8-carbohydrazide] | < 100 nM
